Assay results as given in US5998476A, “Synthetic polyunsaturated fatty acid analogues” (Peptide Technology Limited, priority 1994, dated 1999).
Read-outs that look alike come from different tables or passages of the source.

Key:
[1] = system: peripheral blood mononuclear cells; test: PHA-induced proliferation of peripheral blood mononuclear cells (thymidine incorporation); assay type: cell-based; conditions: Homo sapiens, PBMC, read-out: % INHIBITION OF PROLIFERATION
Description: Mononuclear cells were separated from peripheral blood of normal human donors as described by Ferrante and Thong (1978 . . . ). The mononuclear cells were resuspended in RPMI-1640 containing 20% human AB serum and placed into 96 well microtrays (50 μl per well, cell density 4×10^6 cells/ml). Fatty acid was then added in 50 μl and pre-incubated with the cells for 30 min at 37° C. in 5% CO2. Mitogen (PHA, ConA, PWM. Staph, Aureus) was then added in 100 μl and the cells incubated for 66 hours at 37° C. in 5% CO2 before the addition of tritiated thymnidine (1 μCi/well). After a total of 72 h in culture, the cells were harvested and proliferation (thymidine incorporation) and supernatants assayed for the presence of cytokines.

[2] = system: chloroquine-resistant P. falciparum strain K; test: Inhibition of chloroquine-resistant P. falciparum strain K (direct anti-malarial activity); assay type: cell-based; conditions: All PUFA at 11μm

Structure (SMILES)	inhibition at 20 µM ([1]; All PUFA at 20μM, PHA-induced)	% INHIBITION of P. falciparum [2]	inhibition at 20 µM [1]
CC/C=C\C/C=C\C/C=C\C/C=C\C/C=C\CCCC(=O)NCC(=O)O [eicosapentaenoic acid-glycine-OH, Eicosapentaenoic acid-glycine-OH]	5.4%	–	–
CCCCC/C=C\C/C=C\C/C=C\CCCCC(=O)N[C@@H](CC(=O)O)C(=O)O [γ-linolenic acid-aspartic acid-OH, Gamma Linolenic-Aspartic Acid-OH]	7.3%	–	–
CCN(CC)CCCC(C)Nc1ccnc2cc(Cl)ccc12 (centres unmarked) [Chloroquine, reference compound]	–	20.1%	–
CCCCC/C=C\C/C=C\C/C=C\C/C=C\CCCC(=O)NCC(=O)O [arachidonic acid-glycine-OH, Arachidonic Acid-Glycine-OH]	–	84.2%	8%
CC/C=C\C/C=C\C/C=C\CCCCCCCC(=O)N[C@@H](CC(=O)O)C(=O)O [α-linolenic acid-aspartic acid-OH, Linolenic Acid-Aspartic Acid-OH]	15.4%	–	–
CCCCC/C=C\C/C=C\C/C=C\C/C=C\CCCC(=O)N[C@@H](CC(=O)O)C(=O)O [arachidonic acid-aspartic acid-OH, Arachidonic-aspartic acid-OH]	–	–	39.7%
CC/C=C\C/C=C\C/C=C\C/C=C\C/C=C\C/C=C\CCC(=O)NCC(=O)O [docosahexaenoic acid-glycine-OH, Docosahexaenoic acid-glycine-OH]	16.6%	84.9%	–
CC/C=C\C/C=C\C/C=C\C/C=C\C/C=C\CCCC(=O)N[C@@H](CC(=O)O)C(=O)O [eicosapentaenoic acid-aspartic acid-OH, Eicosapentaenoic acid-aspartic acid-OH]	20.7%	–	–
CCCCC/C=C\C/C=C\C/C=C\CCCCC(=O)NCC(=O)O [γ-linolenic acid-glycine-OH, Gamma Linolenic Acid-Glycine-OH]	15.6%	–	–
CC/C=C\C/C=C\C/C=C\C/C=C\C/C=C\C/C=C\CCC(=O)N[C@@H](CC(=O)O)C(=O)O [docosahexaenoic acid-aspartic acid-OH, Docosahexaenoic Acid-Aspartic Acid-OH]	21.1%	–	–
CC/C=C\C/C=C\C/C=C\CCCCCCCC(=O)NCC(=O)O [α-linolenic acid-glycine-OH, Linolenic Acid-Glycine-OH]	29%	81.5%	–
